These results are taken from US11236056B2, “Small molecules and methods of reducing injuries caused by radiation or chemicals” (priority 2019, dated 2022).

For data set [1], the system named is NIH-Swiss female mice. The data set is described as follows: Radioprotection against TBI induced mortality, 30 min pretreatment (Example 2). Format: in vivo. The note with it: 80 mg/kg i.p. 30 min prior to 7.5 Gy TBI. On the procedure:
NIH-Swiss female mice were divided into 5 groups (8 mice/group). Thirty min prior to 7.5 Gy TBI, mice were treated by i.p. injection with UTS-1401, -1402, and -1403 (80 mg/kg each) or vehicle, respectively. Mice in control group were not irradiated. Definition of “death” used in this study was when a mouse actually died or when a mouse lost 20% or more of its bodyweight.
FIG. 2 is a graph of the radioprotection of UTS-1401, -1402, and -1403 determined according to Example 2.

Data set [2] is described as follows: Solubility determination of UTS-14 compounds. The format is physicochemical. The note with it: thermodynamic from solid. On the procedure:
If the compound was not dissolved, more solvent was added and the solution was watched again after one day. This procedure was continued until the compound was completely dissolved, after which the solubility was calculated.

The subject of data set [3] is NIH-Swiss female mice. The data set is described as follows: Radioprotection compared with amifostine, 45 min before or after TBI (Example 4). The format is in vivo. Here is the method: NIH-Swiss female mice were divided into 8 groups (10 mice/group). (A) Forty-five min prior to 7.5 Gy TBI, mice were treated by i.p. injection with UTS-1401 (75 mg/kg), amifostine (75 mg/kg) or vehicle, respectively. Mice in control group were not irradiated. (B) Same procedure as in (A) except that mice were treated by testing agents forty-five min after 7.5 Gy TBI.
FIG. 4 is a graph of the effects of UTS-1401 and amifostine on TBI induced in NIH-Swiss mice mortality administered 45 minutes before TBI determined according to Example 4.
FIG. 5 is a graph of the effects of UTS-1401 and amifostine on TBI induced in NIH-Swiss mice mortality administered 45 minutes after TBI determined according to Example 4.

Data set [4] concerns NIH-Swiss female mice. The data set is described as follows: Drug dose-dependent radioprotection against TBI induced mortality, 30 min pretreatment (Example 3). Format: in vivo. Particulars: 25 or 75 mg/kg i.p. 30 min prior to 7.5 Gy TBI. Here is the method:
NIH-Swiss female mice were divided into 4 groups (8 mice/group). Thirty min prior to 7.5 Gy TBI, mice were treated by i.p. injection with UTS-1401 (0, 2, or 6 mg/mL or 0, 25, or 75 mg/kg) or vehicle, respectively. Mice in control group were not irradiated. Definition of “death” used in this study was when a mouse actually died or when a mouse lost 20% or more of its bodyweight.
FIG. 3 is a graph of the dose-dependent effect of UTS-1401 on TBI induced mortality in NIH-Swiss mice determined according to Example 3.

Data set [5] concerns H9C2 cardiomyocytes. Put plainly: Protection against doxorubicin-induced damage on cardiomyocytes in vitro (MTT assay). Format: cell-based. Particulars: 30 min pretreatment before DOX, assayed 3 days later. On the procedure:
Briefly, myocardiocytes H9C2 were cultured in high glucose DMEM with 10% bovine calf serum and 10,000 cells per well of cardiomyocytes were treated by DOX with and without the 30 min pretreatment of UTS-1401. The survival rates were assayed by MTT assay 3 days later.
FIG. 8 is a graph showing protection of UTS-1401 on H9C2 cardiomyocytes against DOX-induced determined according to Example 6.

The subject of data set [6] is NIH Swiss male mice. Put plainly: Radioprotection, 24 hr pretreatment, male mice (Example 5). Format: in vivo. On the procedure:
NIH Swiss male mice were studied for the radioprotective effects of UTS-1401 at 50, 100, and 150 mg/kg respectively by i.p. injection at 24 hr before TBI at 6.5, 7.5, and 8.5 Gy. […] These observations indicate that UTS-1401 is effective as a radioprotector for male NIH Swiss mice against TBI of both 7.5 and 8.5 Gy.
FIG. 6 is a graph of the effect of UTS-1401 on TBI induced mortality in NIH-Swiss mice administered at 100 mg/kg determined according to Example 5.

For data set [7], the system named is NIH Swiss female mice. The data set is described as follows: Radioprotection, 24 hr pretreatment, female mice (Example 5). Format: in vivo. Here is the method: Only 8.5 Gy results are summarized here.
FIG. 7 is a graph of the effect of UTS-1401 on TBI induced mortality in NIH-Swiss mice administered at 150 mg/kg determined according to Example 5.

The mark [8] stands for this setting: water, rm temp, read-out: solubility in water.
Where [9] appears, read: 75 mg/kg i.p. 45 min after 7.5 Gy TBI.
Where [10] appears, read: 75 mg/kg i.p. 45 min before 7.5 Gy TBI.
Where [11] appears, read: 50, 100, and 150 mg/kg 24 hr before 8.5 Gy TBI.

≈ marks a conversion by molar mass, not a printed value. Read-outs that look alike come from different tables or passages of the source.

As for `C[S+]([O-])Cc1cc(C(=O)O)no1` (stereo not shown) [UTS-1402], in data set [1], the “survival of irradiated mice” value is on record as “increased the survival”. Besides, the solubility in data set [2] (setting [8]) is roughly 16 mg/mL (≈ 84.6 mM).
`CS(=O)(=O)Cc1cc(C(=O)O)no1` [UTS-1403]: the “survival of irradiated mice” value in data set [1] is listed as “increased the survival”. Moreover, the solubility in data set [2] (Hank's Balanced Salt Solution (HBSS), saline or isotonic, read-out: solubility in Hank's Balanced Salt Solution (HBSS)) is roughly 15.8 mg/mL; in data set [2] (setting [8]), roughly 9.1 mg/mL (≈ 44.3 mM).
`NCCCNCCSP(=O)(O)O` [amifostine, Amifostine, reference compound]: the figures for the “survival rate of mice” value in data set [3] (setting [9]) and in data set [3] (setting [10]) were “did not increase the survival rate” and “increased the survival rate”, respectively.
With `CSCc1cc(C(=O)O)no1` [UTS-1401], the entries for the “survival rate of mice” value in data set [4], in data set [3] (setting [9]) and in data set [3] (setting [10]) were “increased the survival rate of mice in a dose-dependent manner”, “significantly increased the survival rate” and “increased the survival rate”, respectively. Further, in data set [5], the “protection of cardiomyocytes (survival rates by MTT)” value is “protected cardiomyocytes significantly”. For the same compound, the “radioprotection as compared with amifostine” value in data set [3] (75 mg/kg i.p. 45 min before or after 7.5 Gy TBI) is reported as “better radioprotection as compared with amifostine”. In addition, the survival rates entry in data set [6] (50, 100, 150 mg/kg i.p. 24 hr before 7.5 Gy TBI) is “greatly increased”; in data set [6] (50, 100, 150 mg/kg i.p. 24 hr before 8.5 Gy TBI) it was “greatly increased”. In data set [6] (50, 100, 150 mg/kg i.p. 24 hr before 7.5 and 8.5 Gy TBI), the “dose dependence of survival rates” value is reported as “drug-dose dependent”. Moreover, the “day from which average body wt of surviving pretreated mice started to recover” value in data set [6] (i.p. 24 hr before TBI) was roughly 20 days. Further, the “survival of irradiated mice” value in data set [1] is listed as “increased the survival”. Further, the solubility in data set [2] (saline or isotonic, saline, 37° C., read-out: solubility in saline at 37° C.) is 12 mg/mL (≈ 69.3 mM); in data set [2] (setting [8]), roughly 9.5 mg/mL (≈ 54.9 mM). Besides, the “dose dependence of radioprotective effects” value in data set [7] (setting [11]) is on record as “essentially the same for all 3 doses”. In addition, the “radioprotective effects / mortality” value in data set [7] (setting [11]) is “significant radioprotective effects and reduced the mortality”. Further, the optimal dose result in data set [7] (24 hr before 8.5 Gy TBI) is given as “around 50 mg/kg”.
